# Reference: patent US20030171424A1, “Intravenous formulation of artelinic acid for treatment of severe and complicated malaria” (priority 2002, published 2003)
# How the values were obtained:
# [1] = Stability of bulk salt and solutions on standing; type: physicochemical
# From the text: The precipitates were identified by NMR and x-ray crystallography to be pure artelinic acid.
# Feasibility of using preformed AL salts with three basic amino acids, L-lysine, L-arginine or L-histidine for AL intravenous formulation were studied. The basicity of histidine is too weak to form water soluble AL-histidine salt. […] Therefore, L-lysine was deemed the most feasible.
# AL/LY is soluble in water, saline, glucose solution or any IV injectable (neutral or basic) water solution. […] Therefore, for practical purpose, the preferred vehicle for intravenous injection is a normal saline or 5% glucose solution containing 0.1-0.5% L-lysine. The final osmolarity is around 290 mosm/kg.
# [2] = cited from earlier work; for CNS toxicity versus oil soluble analogs such as artemether and arteether: rats and dogs; for CNS toxicity: chronically dosed rats and dogs
# [3] = in vivo; cited from earlier work
# P. knowlesi = settings: rhesus monkeys, 15 mg/kg×3 days; cited from earlier work
# [4] = Procedure: The most commonly used water soluble salt for acidic drugs is sodium salt. The sodium salt of artelinic acid was prepared in our laboratory by dissolving artelinic acid in a slightly less than one equivalent mole of sodium hydroxide solution. The slight excess amount of insoluble artelinic acid was removed by extraction of the mixture with diethyl ether. The aqueous layer was evaporated under reduced pressure using a rotary evaporator to remove the small amount of volatile diethyl ether, and then lyophilized to give sodium artelinate as a white powder.
# P. berghei = settings: administered orally; cited from earlier work
# P. coatneyi malaria = assay: AL/LY Efficacy in Uncomplicated Malaria (rhesus); type: in vivo; settings: control animal, 7 days of IM BID
# Procedure: 1. AL/LY Efficacy in Uncomplicated Malaria (done with PK trial)
# i. 10 splenectomized rhesus with mild P. coatneyi malaria (mean parasitemia 773K/μl or 11.8%) and one quinine control (773K/μl or 13.5%). All asymptomatic.
# ii. 11.8 mg/kg loading dose given IV push over 3 minutes, then 5.9 mg/kg for 2 days
# severe malaria = assay: Efficacy in Severe Malaria (rhesus); type: in vivo
# [5] = aqueous solution made in 5% sodium bicarbonate; cited from earlier work
# [6] = Intravenous toxicity and tolerance in rat; type: in vivo; settings: in 5% sodium carbonate vehicle
# From the text: Although a ready-to-use intravenous solution in a multiple dose vial is a convenient and preferable formulation, current formulation of dissolving preformed AL/LY salt in 0.3% of L-lysine/saline solution prior to administration has been used satisfactorily to assess the efficacy and toxicity of AL in rat, Aotus and Rhesus monkey models.
compound,measurement,setting,value
CC1CCC2C(C)C(OCc3ccc(C(=O)O)cc3)OC3OC4(C)CCC1C32OO4.N=C(N)NCCCC(N)C(=O)O (stereo not shown) [AL-arginine salt],colour of aqueous solution on standing,"[1]; room temperature, within two days to one week",turned to deep red color
"C[C@H]1[C@H](OC(=O)CCC(=O)O)O[C@@H]2O[C@@]3(C)CC[C@H]4[C@H](C)CC[C@@H]1[C@@]24OO3 [AS, artesunic acid]",CNS toxicity versus oil soluble analogs such as artemether and arteether,[2],substantially less CNS toxicity
"C[C@H]1[C@@H](OCc2ccc(C(=O)[O-])cc2)O[C@@H]2O[C@]3(C)CC[C@H]4[C@H](C)CC[C@@H]1[C@@]24OO3.[Na+] [Na-AL, Sodium artelinate]",plasma half-life,[3],90 to 180 min
same,time the solution stayed clear,"[1]; in sodium carbonate 0.1 to 0.5%, depending on concentration",from one week to one month
same,appearance of freshly prepared aqueous solution on standing,[1]; room temperature,turned turbidity
same,decomposition product on standing,[1]; room temperature for three months,No decomposition product was detected
same,crystal formation on longer standing,"[1]; sodium carbonate solutions, room temperature, longer period, free artelinic acid",crystallized out from all solutions
same,cure of infection,P. knowlesi,complete cures
same,solubility in distilled water,[4],does not dissolve completely
same,solubility in sodium carbonate solution,[4],very soluble
same,water solubility,[4],> 60 mg/mL
same,efficacy,P. berghei,highly effective
"CCO[C@H]1O[C@@H]2O[C@@]3(C)CC[C@H]4[C@H](C)CC[C@@H]([C@H]1C)[C@@]24OO3 [arteether, Arteether]",CNS toxicity,[2],fatal CNS toxicity
same,plasma half-life,[3],short plasma half-life
"CO[C@H]1O[C@@H]2O[C@@]3(C)CC[C@H]4[C@H](C)CC[C@@H]([C@H]1C)[C@@]24OO3 [artemether, Artemether]",CNS toxicity,[2],fatal CNS toxicity
same,plasma half-life,[3],short plasma half-life
C=C[C@H]1C[N@@]2CC[C@H]1C[C@H]2[C@H](O)c1ccnc2ccc(OC)cc12 [quinine],day on which parasitemia cleared,P. coatneyi malaria,8 days
same,cure,severe malaria; IM BID for 7 days,all cured
same,"parasitemia cleared, mean time",severe malaria; IM BID for 7 days,5.6 days
same,time to resolution of severe malaria symptoms,severe malaria; IM BID for 7 days,3 days
same,survived,"severe malaria; IM BID for 7 days, controls (4 of 5)",80%
same,died,severe malaria; therapy delayed 24 hours,50%
"C[C@H]1[C@H](OC(=O)CCC(=O)[O-])O[C@@H]2O[C@@]3(C)CC[C@H]4[C@H](C)CC[C@@H]1[C@@]24OO3.[Na+] [sodium artesunate, Sodium artesunate]",time within which dihydroartemisinin precipitates out from unused solution,[5],2 to 3 h
same,plasma half-life,[3],20 to 30 min
artelinic acid [AL],CNS toxicity versus oil soluble analogs such as artemether and arteether,[2],substantially less CNS toxicity
same,LD50,[6]; female rat,50 mg/kg
same,LD50,[6]; male rat,67 mg/kg
same,water solubility,[4],not water soluble
